{"source": "patent US8063041B2", "about": "(Wyeth LLC, priority 2009, dated 2011)", "key": {"[1]": {"test": "Solubility of bazedoxifene acetate forms (dynamic dissolution method using Crystal-16 and HPLC method)", "type": "physicochemical", "settings": "for solubility compared with Form B: crystallization solvent", "method": "The profiles of the temperature and magnetic stirring speed for each row may be independently adjusted. The turbidity of each vial was monitored and plotted with the temperature profiles to determine dissolution and precipitation points of solids. A pre-weighed amount of solid and solvent were mixed together in clear glass vials, and were heated slowly (at 0.2° C./min). The dissolution temperature was recorded. The concentration of the solution (calculated based on the weight of solid and solvent) was treated as the saturation concentration at the recorded temperature, and solubility was calculated based on this concentration. […] The suspension was filtered after stirring for 30 minutes and the solution concentration was analyzed by HPLC. The measured solubility data for the two methods are plotted in FIGS. 4 and 5."}, "uterine response": {"test_system": "uterine response", "settings": "preclinical models of uterine stimulation; cited from earlier work"}, "ovariectomized rat": {"test_system": "ovariectomized rat", "settings": "ovariectomized rat model of osteopenia; cited from earlier work"}, "[2]": {"test_system": "MCF-7 cell line (human breast cancer cell line)", "settings": "cited from earlier work"}}}
{"compound": "CC(=O)O.Cc1c(-c2ccc(O)cc2)n(Cc2ccc(OCCN3CCCCCC3)cc2)c2ccc(O)cc12", "note": "[Form A]", "values": [{"measurement": "solubility compared with other forms", "setting": "[1]; all conditions studied, crystallization solvent and slurry test solvent", "value": "higher than Forms B and D"}]}
{"compound": "Cc1c(-c2ccc(O)cc2)n(Cc2ccc(OCCN3CCCCCC3)cc2)c2ccc(O)cc12", "note": "[Form D, 1-[4-(2-azepan-1-yl-ethoxy)-benzyl]-2-(4-hydroxy-phenyl)-3-methyl-1H-indol-5-ol acetic acid]", "values": [{"measurement": "solubility compared with Form A", "setting": "[1]; at 0-60° C.", "value": "less soluble"}, {"measurement": "solubility compared with Form B", "setting": "[1]; above about 30° C.", "value": "slightly higher than that of Form B"}, {"measurement": "solubility compared with Form B", "setting": "[1]; below about 30° C.", "value": "very similar to Form B solubility"}]}
{"compound": "Cc1c(-c2ccc(O)cc2)n(Cc2ccc(OCCN3CCCCCC3)cc2)c2ccc(O)cc12", "note": "[bazedoxifene acetate, 1-[4-(2-azepan-1-yl-ethoxy)-benzyl]-2-(4-hydroxy-phenyl)-3-methyl-1H-indol-5-ol acetic acid]", "values": [{"measurement": "stimulation of uterine response", "setting": "uterine response", "value": "little or no stimulation"}, {"measurement": "preventing bone loss", "setting": "ovariectomized rat", "value": "estrogen agonist-like effect"}, {"measurement": "reducing cholesterol", "setting": "ovariectomized rat", "value": "estrogen agonist-like effect"}, {"measurement": "estrogen agonist/antagonist behaviour", "setting": "[2]", "value": "behaves as an estrogen antagonist"}]}
